We go through 17 compounds from US11548900B2, “Oxazino-quinazoline and oxazino-quinoline type compound, preparation method and uses thereof” (BEIJING SCITECH-MQ PHARMACEUTICALS LIMITED, priority 2018, dated 2023).

The target in one assay is HER2 kinase (Homo sapiens (Human), UniProt P04626). Briefly: Inhibition of HER2 kinase activity (ULight-labeled PolyGT substrate). It counts as biochemical. The following applies: HER2 kinase 10 nM, ATP 10 μM, 2 hours. As for the experimental part:
(§1) The assay for the inhibition of EGFR and HER2 kinase activity by small molecular compounds was carried out using the method as follows:
(§2) 1) Dilution of the compounds
(§3) In a 96-well plate a, the compounds were diluted with DMSO using a 3-fold gradient dilution to form 11 concentrations, the 12th concentration is pure DMSO (as a positive control); and in a new 96-well plate b the above solutions were diluted 25 times with ultrapure water (DMSO concentration is 4%).
(§4) 2) Transferring the compounds to 384-well plate
(§5) The compound solutions diluted with ultrapure water in the 96-well plate b above was transferred to the corresponding wells of a 384-well plate in duplicate.
(§6) 3) Addition of 4×kinase solution: 2.5 μl of the above 4× kinase solution was taken using multichannel pipette and added to the corresponding reaction wells of the 384-well plate, mixed well and pre-reacted at room temperature for 5 minutes.
(§7) 4) Addition of 2×substrate/ATP mixed solution: 5 μl of the above 2×substrate/ATP mixed solution was taken using multichannel pipette and added to the corresponding reaction wells of the 384-well plate.
(§8) 5) Negative control: negative control wells were set in the 384-well plate, and 2.5 μl 4×substrate, 2.5 μl 4×enzyme solution, 2.5 μl 1×Kinase Assay Buffer and 2.5 μl ultrapure water containing 4% DMSO were added to each well.
(§9) 6) Mixed by centrifugation and kept at room temperature for 2 hours in the dark.
(§10) 7) Termination of the enzymatic reaction:
(§11) 5 μl of the above 4× stop solution was pipetted to the corresponding wells of the 384-well plate, centrifuged and mixed, and reacted at room temperature for 5 minutes.
(§12) 5 μl of the above 4× detection solution was pipetted into the corresponding wells of the 384-well plate, centrifuged and mixed, and reacted at room temperature for 1 hour.
(§13) 9) The 384-well plate was placed into a microplate reader and the signal was detected using the corresponding program.
(§14) 10) IC50 analysis: Well reading value=10000*EU665 value/EU615 value Inhibition rate=(reading value of positive control well−reading value of experimental well)/(reading value of positive control well−reading value of negative control well)*100% Corresponding IC50s can be calculated by entering the drug concentrations and the corresponding inhibition rates into GraphPad Prism 5.
Conditions of experiment for screening HER2 kinase inhibitory molecules:
The final concentration of HER2 kinase in the reaction system is 10 nM, the final concentration of ATP is 10 μM, the final concentration of substrate ULight™-labeled PolyGT is 100 nM, and the enzymatic reaction time is 2 hours.
(§15) The maximum final concentration of the compound in the reaction system is 2.5 μM, 11 concentrations were made with a 3-fold gradient dilution, and the minimal final concentration is 0.042 nM. The final concentration of DMSO is 1%.

The target of the next assay is EGFR kinase (Homo sapiens (Human), UniProt P00533). Put plainly: Inhibition of EGFR kinase activity (ULight-labeled JAK-1 (Tyr1023) peptide substrate). It counts as biochemical. The conditions noted are these: EGFR kinase 0.35 nM, ATP 150 μM, 2 hours. As for the experimental part:
as §1, §2, §3, §4, §5, §6, §7, §8, §9, §10, §11, §12, §13, §14
Conditions of experiment for screening EGFR kinase inhibitory molecules:
The final concentration of EGFR kinase in the reaction system is 0.35 nM, and the final concentration of ATP is 150 μM, the final concentration of substrate ULight™-labeled JAK-1 (Tyr1023) Peptide is 100 nM, and the enzymatic reaction time is 2 hours.
as §15

In the next assay the test system is BT474 cells. Briefly: Inhibition of cell proliferation, BT474 (CCK-8, 72 h). It counts as cell-based. The following applies: Homo sapiens, BT-474, 72 h incubation. As to the method:
The assay for the inhibition of cell proliferation by small molecular compounds was carried out using the method as follows:
1. 600 μL pancreatin was added to a T75 cell culture flask, which was digested in a 37° C. incubator for about 1 min before 5 mL of DMEM complete culture solution was added, blew evenly, transferred to a 15 mL centrifuge tube, and centrifuged at 1000 rpm for 4 min;
2. The supernatant was removed and 5 mL DMEM complete culture solution was added, blew evenly, and 10 μL cell suspension was taken and mixed with 10 μL 0.4% Trypan Blue, and counted using a cell counter;
3. BT474 and HCC827 cell lines were seeded in 96-well plates at a cell density of 10,000 and 3000 cells/well/80 μL, respectively, and cultured overnight. Only sterile water was added to the 36 wells on the periphery of the 96-well plate without adding cells, and only the 60 wells in the center of the 96-well plate were used for cell assays and controls;
4. Dilution of compounds: the compounds were diluted with a 3-fold dilution to make 10 concentrations in total with an initial concentration of 10 mM;
5. 20 μL of different compounds with different concentrations were added to each well, and 20 μL of complete culture solution was added to the remaining wells. The final concentration of DMSO in each well is 0.25%;
6. After 72 h of incubation, 10 μL CCK-8 reagent was added to each well, and incubated at 37° C. for 1-2 h; and the OD value was read at 450 nm;
7. Cell survival rate (%)=[(As−Ab)/(Ac−Ab)]*100%
As: Assay well (medium containing cell, CCK-8, compound)
Ac: Control well (medium containing cell, CCK-8)
Ab: Blank well (CCK-8, medium without cell and compound)
8. The value was imported into Graphpad Prism5 software for the calculation of IC50s (compound concentration at which 50% maximum survival rate is observed).

Structures are written as SMILES.

Sequence of HER2 kinase (P04626 23-1255): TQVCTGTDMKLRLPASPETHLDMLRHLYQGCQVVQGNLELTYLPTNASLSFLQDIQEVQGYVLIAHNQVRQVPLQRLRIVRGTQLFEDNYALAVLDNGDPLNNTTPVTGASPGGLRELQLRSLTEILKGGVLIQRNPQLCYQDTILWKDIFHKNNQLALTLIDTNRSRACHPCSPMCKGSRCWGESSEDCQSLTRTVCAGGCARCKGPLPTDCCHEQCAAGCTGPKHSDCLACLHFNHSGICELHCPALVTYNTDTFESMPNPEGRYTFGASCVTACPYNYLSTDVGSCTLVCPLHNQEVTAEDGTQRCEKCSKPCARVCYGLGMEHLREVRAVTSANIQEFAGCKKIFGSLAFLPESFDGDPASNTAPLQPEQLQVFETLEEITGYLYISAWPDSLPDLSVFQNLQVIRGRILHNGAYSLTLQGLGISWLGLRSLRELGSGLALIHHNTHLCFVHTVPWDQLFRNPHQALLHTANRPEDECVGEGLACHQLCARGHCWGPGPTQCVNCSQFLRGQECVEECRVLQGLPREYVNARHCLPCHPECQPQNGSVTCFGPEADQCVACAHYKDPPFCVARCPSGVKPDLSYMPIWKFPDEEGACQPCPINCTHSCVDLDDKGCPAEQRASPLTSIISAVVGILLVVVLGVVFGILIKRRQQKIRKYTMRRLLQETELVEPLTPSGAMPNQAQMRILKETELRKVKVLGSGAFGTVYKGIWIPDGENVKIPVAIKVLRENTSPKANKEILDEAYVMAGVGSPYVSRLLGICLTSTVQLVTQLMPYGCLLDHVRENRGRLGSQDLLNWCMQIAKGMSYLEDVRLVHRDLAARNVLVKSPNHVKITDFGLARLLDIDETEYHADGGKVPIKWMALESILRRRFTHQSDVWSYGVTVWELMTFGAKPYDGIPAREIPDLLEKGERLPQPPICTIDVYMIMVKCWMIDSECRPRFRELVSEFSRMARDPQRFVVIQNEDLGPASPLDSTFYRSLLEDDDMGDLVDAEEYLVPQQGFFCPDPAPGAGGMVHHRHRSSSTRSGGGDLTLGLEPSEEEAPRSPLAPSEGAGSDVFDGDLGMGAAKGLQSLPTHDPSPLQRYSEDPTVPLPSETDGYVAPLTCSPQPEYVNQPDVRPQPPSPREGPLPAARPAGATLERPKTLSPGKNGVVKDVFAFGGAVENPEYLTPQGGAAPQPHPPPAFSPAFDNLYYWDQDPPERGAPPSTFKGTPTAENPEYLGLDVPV
Sequence of EGFR kinase (P00533 25-1210): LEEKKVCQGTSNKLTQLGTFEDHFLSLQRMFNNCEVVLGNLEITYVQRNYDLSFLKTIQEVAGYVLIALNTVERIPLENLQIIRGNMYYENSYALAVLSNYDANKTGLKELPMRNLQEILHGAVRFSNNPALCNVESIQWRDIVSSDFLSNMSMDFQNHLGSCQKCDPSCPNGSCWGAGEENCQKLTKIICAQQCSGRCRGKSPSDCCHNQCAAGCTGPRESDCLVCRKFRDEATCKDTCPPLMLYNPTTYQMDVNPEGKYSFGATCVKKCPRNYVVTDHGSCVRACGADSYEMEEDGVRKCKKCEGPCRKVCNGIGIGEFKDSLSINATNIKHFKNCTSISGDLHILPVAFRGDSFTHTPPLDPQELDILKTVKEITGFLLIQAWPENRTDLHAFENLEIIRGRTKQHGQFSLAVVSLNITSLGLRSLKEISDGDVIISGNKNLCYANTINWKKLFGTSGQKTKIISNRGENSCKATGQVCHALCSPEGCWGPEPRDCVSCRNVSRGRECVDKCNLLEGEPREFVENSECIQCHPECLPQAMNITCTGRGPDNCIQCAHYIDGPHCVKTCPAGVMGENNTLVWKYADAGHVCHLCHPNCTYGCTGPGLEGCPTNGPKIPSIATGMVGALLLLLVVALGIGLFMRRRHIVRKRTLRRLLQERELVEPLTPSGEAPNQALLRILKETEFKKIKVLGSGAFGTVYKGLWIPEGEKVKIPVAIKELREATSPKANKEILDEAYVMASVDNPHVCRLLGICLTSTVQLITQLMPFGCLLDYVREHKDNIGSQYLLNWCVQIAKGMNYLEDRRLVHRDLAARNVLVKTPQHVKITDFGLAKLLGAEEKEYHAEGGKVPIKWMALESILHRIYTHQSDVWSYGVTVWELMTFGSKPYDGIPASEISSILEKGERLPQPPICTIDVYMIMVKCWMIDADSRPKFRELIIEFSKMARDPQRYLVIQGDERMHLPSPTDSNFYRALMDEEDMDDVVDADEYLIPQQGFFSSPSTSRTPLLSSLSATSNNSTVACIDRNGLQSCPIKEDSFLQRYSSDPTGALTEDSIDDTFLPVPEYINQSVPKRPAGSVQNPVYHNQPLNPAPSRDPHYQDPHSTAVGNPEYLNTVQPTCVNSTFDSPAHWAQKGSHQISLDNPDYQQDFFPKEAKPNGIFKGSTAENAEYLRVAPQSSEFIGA

In the case of `C=CC(=O)N1CCOc2c1ccc1ncnc(Oc3ccc(OCc4cccc(F)c4)c(Cl)c3)c21` [Example 35, 1-(10-(3-chloro-4-((3-fluorobenzyl)oxy)phenoxy)-2,3-dihydro-4H-[1,4]oxazino[2,3-f]quinazolin-4-yl)prop-2-en-1-one], the half-maximal inhibitory concentration (IC50) against HER2 kinase and against EGFR kinase was no more than 50 nM in each case.

For the compound `C=CC(=O)N1CCOc2c1ccc1ncnc(Oc3ccc(Oc4ccc(F)cc4)cc3)c21` [Example 37, 1-(10-(4-(4-fluorophenoxy)phenoxy)-2,3-dihydro-4H-[1,4]oxazino[2,3-f]quinazolin-4-yl)prop-2-en-1-one], the IC50 against HER2 kinase and at EGFR kinase was no more than 50 nM in each case.

Consider `C=CC(=O)N1CCOc2c1ccc1ncnc(Oc3ccc(OCc4ccccn4)cc3)c21` [Example 39, 1-(10-(4-(pyridin-2-ylmethoxy)phenoxy)-2,3-dihydro-4H-[1,4]oxazino[2,3-f]quinazolin-4-yl)prop-2-en-1-one], for which the IC50 at HER2 kinase and at EGFR kinase was no more than 50 nM each time.

As to `C=CC(=O)N1CCOc2c1ccc1ncnc(Oc3ccc(OCc4ccccc4F)cc3)c21` [Example 40, 1-(10-(4-((2-fluorobenzyl)oxy)phenoxy)-2,3-dihydro-4H-[1,4]oxazino[2,3-f]quinazolin-4-yl)prop-2-en-1-one], the IC50 against HER2 kinase and on EGFR kinase was no more than 50 nM throughout.

For the compound `C=CC(=O)N1CCOc2c1ccc1ncnc(Oc3ccc(OCc4cccc(F)c4)cc3)c21` [Example 41, 1-(10-(4-((3-fluorobenzyl)oxy)phenoxy)-2,3-dihydro-4H-[1,4]oxazino[2,3-f]quinazolin-4-yl)prop-2-en-1-one], the concentration for half-maximal inhibition (IC50) at HER2 kinase and at EGFR kinase was no more than 50 nM each time.

As to `C=CC(=O)N1CCOc2c1ccc1ncnc(Oc3ccc(OCc4ccc(F)cc4)cc3)c21` [Example 42, 1-(10-(4-((4-fluorobenzyl)oxy)phenoxy)-2,3-dihydro-4H-[1,4]oxazino[2,3-f]quinazolin-4-yl)prop-2-en-1-one], the IC50 at HER2 kinase and against EGFR kinase was no more than 50 nM throughout.

For `CN(C)C/C=C/C(=O)N1CCOc2c1ccc1ncnc(Nc3ccc(Oc4cccc(C(F)(F)F)c4)cc3)c21` [Example 43, (E)-4-(dimethylamino)-1-(10-((4-(3-(trifluoromethyl)phenoxy)phenyl)amino)-2,3-dihydro-4H-[1,4]oxazino[2,3-f]quinazolin-4-yl)but-2-en-1-one], the IC50 at HER2 kinase and on EGFR kinase was no more than 50 nM each time.

Turning to `CN(C)C/C=C/C(=O)N1CCOc2c1ccc1ncnc(Nc3ccc(OCc4cccc(F)c4)c(Cl)c3)c21` [Example 45, (E)-1-(10-((3-chloro-4-((3-fluorobenzyl)oxy)phenyl)amino)-2,3-dihydro-4H-[1,4]oxazino[2,3-f]quinazolin-4-yl)-4-(dimethylamino)but-2-en-1-one], the half-maximal inhibitory concentration (IC50) against HER2 kinase and against EGFR kinase was no more than 50 nM each time.

As to `CN(C)C/C=C/C(=O)N1CCOc2c1ccc1ncnc(Nc3ccc(Oc4ccc(Cl)cc4)cc3)c21` [Example 52, (E)-4-(dimethylamino)-1-(10-((4-(4-chlorophenoxy)phenyl)amino)-2,3-dihydro-4H-[1,4]oxazino[2,3-f]quinazolin-4-yl)but-2-en-1-one], the IC50 against HER2 kinase and at EGFR kinase was no more than 50 nM each time.

In the case of `CN(C)C/C=C/C(=O)N1CCOc2c1ccc1ncnc(Nc3ccc(OCc4cccc(F)c4)c(C(F)(F)F)c3)c21` [Example 67], the IC50 on HER2 kinase and against EGFR kinase was no more than 50 nM each time.

Turning to `CN(C)C/C=C/C(=O)N1CCOc2c1ccc1ncnc(Nc3ccc(Sc4ccc(F)cc4)cc3)c21` [Example 70, (E)-4-(dimethylamino)-1-(10-((4-((4-fluorophenyl)thio)phenyl)amino)-2,3-dihydro-4H-[1,4]oxazino[2,3-f]quinazolin-4-yl)but-2-en-1-one], the IC50 against HER2 kinase, in the assay on BT474 cells and against EGFR kinase was no more than 50 nM in each case.

For the compound `CC(Oc1ccc(Nc2ncnc3ccc4c(c23)OCCN4C(=O)/C=C/CN(C)C)cc1)c1ccccn1` (centres unmarked) [Example 75, (E)-4-(dimethylamino)-1-(10-((4-(1-(pyridin-2-yl)ethoxy)phenyl)amino)-2,3-dihydro-4H-[1,4]oxazino[2,3-f]quinazolin-4-yl)but-2-en-1-one], the IC50 (commonly the concentration that inhibits the measured activity by half) against HER2 kinase is no more than 50 nM; on EGFR kinase, 50 to 500 nM.

Consider `CN(C)C/C=C/C(=O)N1CCOc2c1ccc1ncnc(Nc3ccc(OCc4ccncc4)cc3)c21` [Example 77, (E)-4-(dimethylamino)-1-(10-((4-(pyridin-4-ylmethoxy)phenyl)amino)-2,3-dihydro-4H-[1,4]oxazino[2,3-f]quinazolin-4-yl)but-2-en-1-one], for which the IC50 on HER2 kinase is no more than 50 nM; at EGFR kinase it was 500 to 5000 nM.

For the compound `COCCCCNC/C=C/C(=O)N1CCOc2c1ccc1ncnc(Nc3ccc(Oc4ccccc4F)cc3)c21` [Example 99, (E)-1-(10-((4-(2-fluorophenoxy)phenyl)amino)-2,3-dihydro-4H-[1,4]oxazino[2,3-f]quinazolin-4-yl)-4-((4-methoxybutyl)amino)but-2-en-1-one], the concentration for half-maximal inhibition (IC50) against HER2 kinase is no more than 50 nM; against EGFR kinase it was 50 to 500 nM.

Take `Cc1cc(Nc2ncnc3ccc4c(c23)OCCN4C(=O)/C=C/CN(C)C)ccc1Oc1ccn2ncnc2c1` [Example 124, (E)-1-(10-((4-([1,2,4]triazolo[1,5-a]pyridin-7-yloxy)-3-methylphenyl)amino)-2,3-dihydro-4H-[1,4]oxazino[2,3-f]quinazolin-4-yl)-4-(dimethylamino)but-2-en-1-one]: the 50% inhibitory concentration (IC50) at HER2 kinase was no more than 50 nM; in the assay on BT474 cells, no more than 50 nM; at EGFR kinase it was 50 to 500 nM.

`CN(C)C/C=C/C(=O)N1CCOc2c1ccc1ncnc(Nc3ccc(Oc4ccn5ncnc5c4)c(Cl)c3)c21` [Example 125, (E)-1-(10-((4-([1,2,4]triazolo[1,5-a]pyridin-7-yloxy)-3-chlorophenyl)amino)-2,3-dihydro-4H-[1,4]oxazino[2,3-f]quinazolin-4-yl)-4-(dimethylamino)but-2-en-1-one]: the 50% inhibitory concentration (IC50) at HER2 kinase was no more than 50 nM; with BT474 cells, no more than 50 nM; at EGFR kinase, 50 to 500 nM.

Turning to `CN1CCN(C/C=C/C(=O)N2CCOc3c2ccc2ncnc(Nc4ccc(Oc5ccn6ncnc6c5)c(Cl)c4)c32)CC1` [Example 126, (E)-1-(10-((4-([1,2,4]triazolo[1,5-a]pyridin-7-yloxy)-3-chlorophenyl)amino)-2,3-dihydro-4H-[1,4]oxazino[2,3-f]quinazolin-4-yl)-4-(4-methylpiperazin-1-yl)but-2-en-1-one], the IC50 against HER2 kinase, in the assay on BT474 cells and on EGFR kinase was no more than 50 nM in each case.
